Assay: Inhibitory concentration against interleukin-2 binding
Parameters: species or system Homo sapiens

Row | Compound | IC50 [µM]
1 | CC(C)N(CCCNS(=O)(=O)N1CCC(c2cc(-c3cccc(Cl)c3Cl)nn2C)CC1)C(=N)N | 48
2 | COC(=O)[C@H](CCNC(=O)N1CCC(c2cc(-c3cccc(Cl)c3Cl)nn2C)CC1)N=C(N)N | > 100
3 | Cn1nc(-c2cccc(Cl)c2Cl)cc1C1CCN(C(=O)NCC[C@H](N=C(N)N)C(=O)O)CC1 | > 100
4 | CCN(CC1CC1)C(=O)[C@H](CCNC(=O)N1CCC(c2cc(-c3cccc(Cl)c3Cl)nn2C)CC1)N=C(N)N | 60
5 | CC(C)[C@@H](CCNS(=O)(=O)N1CCC(c2cc(-c3cccc(Cl)c3Cl)nn2C)CC1)N=C(N)N | > 100
6 | CNC(=O)[C@H](CCNC(=O)N1CCC(c2cc(-c3cccc(Cl)c3Cl)nn2C)CC1)N=C(N)N | > 100
7 | Cn1nc(-c2cccc(Cl)c2Cl)cc1C1CCN(C(=O)NCCCCN=C(N)N)CC1 | > 100
8 | C[C@H](CCNC(=O)N1CCC(c2cc(-c3cccc(Cl)c3Cl)nn2C)CC1)N=C(N)N | 57
9 | CCCN(CCCNC(=O)N1CCC(c2cc(-c3cccc(Cl)c3Cl)nn2C)CC1)C(=N)N | > 100
10 | C[C@H](CCNS(=O)(=O)N1CCC(c2cc(-c3cccc(Cl)c3Cl)nn2C)CC1)N=C(N)N | 90
11 | CC(=O)N1CCN(C(=O)[C@H](CCNC(=O)N2CCC(c3cc(-c4cccc(Cl)c4Cl)nn3C)CC2)N=C(N)N)CC1 | 60
12 | CC(C)N(CCCNC(=O)N1CCC(c2cc(-c3cccc(Cl)c3Cl)nn2C)CC1)C(=N)N | > 100
13 | CC(C)[C@H](CCNC(=O)N1CCC(c2cc(-c3cccc(Cl)c3Cl)nn2C)CC1)N=C(N)N | 55
14 | CC(C)[C@H](CCNS(=O)(=O)N1CCC(c2cc(-c3cccc(Cl)c3Cl)nn2C)CC1)N=C(N)N | 76
15 | Cn1nc(-c2cccc(Cl)c2Cl)cc1C1CCN(S(=O)(=O)NCCN=C(N)N)CC1 | > 100
16 | Cn1nc(-c2cccc(Cl)c2Cl)cc1C1CCN(C(=O)NCC[C@H](N=C(N)N)C(=O)N2CCC3CCCCC3C2)CC1 (stereo partly drawn) | > 100
17 | Cn1nc(-c2cccc(Cl)c2Cl)cc1C1CCN(C(=O)NCCN=C(N)N)CC1 | > 100
18 | CC(C)[C@@H](CCNC(=O)N1CCC(c2cc(-c3cccc(Cl)c3Cl)nn2C)CC1)N=C(N)N | > 100
19 | Cn1nc(-c2cccc(Cl)c2Cl)cc1C1CCN(S(=O)(=O)NCCCCN=C(N)N)CC1 | > 100

Compounds with a lower IC50, results first:

Row | IC50 [µM] | Compound
20 | 32 | CCCN(CCCNS(=O)(=O)N1CCC(c2cc(-c3cccc(Cl)c3Cl)nn2C)CC1)C(=N)N
21 | 29 | Cn1nc(-c2cccc(Cl)c2Cl)cc1C1CCN(C(=O)NCCCN=C(N)N)CC1
22 | 6 | N=C(N)N[C@@H](C(=O)NCC(=O)N1CCC(c2cc(-c3cccc(Cl)c3Cl)n[nH]2)CC1)C1CCCCC1
23 | 20 | Cn1nc(-c2cccc(Cl)c2Cl)cc1C1CCN(C(=O)NCC[C@H](N=C(N)N)C(=O)N2CCCC2)CC1
24 | 11 | CCN(CC)C(=O)[C@H](CCNC(=O)N1CCC(c2cc(-c3cccc(Cl)c3Cl)nn2C)CC1)N=C(N)N
25 | 0.06 | CC(C)C[C@@H](NC(=N)N)C(=O)NCC(=O)N1CCC(c2cc(-c3ccc(OCc4ccc(C(=O)O)o4)c(Cl)c3Cl)nn2C)CC1
26 | 30 | CC(C)C[C@H](CCNS(=O)(=O)N1CCC(c2cc(-c3cccc(Cl)c3Cl)nn2C)CC1)N=C(N)N
27 | 23 | Cn1nc(-c2cccc(Cl)c2Cl)cc1C1CCN(S(=O)(=O)NCCCN=C(N)N)CC1
28 | 7 | CN(C)C(=O)[C@H](CCNC(=O)N1CCC(c2cc(-c3cccc(Cl)c3Cl)nn2C)CC1)N=C(N)N
29 | 23 | CC(C)C[C@H](CCNC(=O)N1CCC(c2cc(-c3cccc(Cl)c3Cl)nn2C)CC1)N=C(N)N
30 | 0.6 | CN(CCCNS(=O)(=O)N1CCC(c2cc(-c3ccc(OCc4ccc(C(=O)O)o4)c(Cl)c3Cl)nn2C)CC1)C(=N)N
31 | 14 | CN(CCCNS(=O)(=O)N1CCC(c2cc(-c3cccc(Cl)c3Cl)nn2C)CC1)C(=N)N
32 | 16 | CN(CCCNC(=O)N1CCC(c2cc(-c3cccc(Cl)c3Cl)nn2C)CC1)C(=N)N
33 | 3 | COC(=O)[C@H](Cc1ccc(C#Cc2ccccc2)cc1)NC(=O)C[C@H]1CCCN(C(=N)N)C1
